Measured values: PMC9944328 (Nature Communications, 2023)
Like-named read-outs stand apart in the source and are kept apart here.

Test system: SSTR2 mutants
Assay: NanoBiT β-arrestin 1 recruitment assay, HEK293 (SSTR2 mutants);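 for Best-fit values Bottom: percent of maximal wild-type response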;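 for Best-fit values Span: percent of maximal wild-type response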;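 for Best-fit values Top: percent of maximal wild-type response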;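 for Bottom (best-fit): percent of maximal wild-type response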;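 for Span (best-fit): percent of maximal wild-type response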;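 for Top (best-fit value): percent of maximal wild-type response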;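 for Top (best-fit): percent of maximal wild-type response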;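 for Top: percent of maximal wild-type response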
Format: cell-based, human
Parameters: Bottom / Span / Bottom (best-fit) / Span (best-fit) / Best-fit values Bottom / Best-fit values Span / Bottom (best-fit value) / Span (best-fit value):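 percent of maximal wild-type response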
Method: The NanoBiT β-arrestin 1 recruitment assays were carried out according to the method described previously. […] Human full-length SSTR wild-type and mutant vectors were C-terminally fused with a 15-amino acid flexible linker and the small fragment (SmBiT). HEK293 cells were seeded into six-well microplates at a density of 1.0 × 10^6 cells/well and cultured for 24 h at 37 °C with 5% CO2. After that, cells were co-transfected with pcDNA3.1+ vectors encoding SSTR wild-type or mutants and human β-arrestin 1. After transfecting for 24 h, the transfected cells were suspended and seeded into white 96-well plates, and then cultured at 37 °C overnight. After that the medium in each well was exchanged for 90 μl of 0.01% bovine serum albumin containing 20 μl of 50 μM coelenterazine h (Carbosynth) diluted in the HBSS assay buffer and incubated for 40 min at room temperature. Then, ligands diluted in the assay buffer was added to each well and the luminescence intensity was measured using the Synergy H1 microplate reader and detected at room temperature in a time period. All data presented are means of at least three independent experiments.

[1] = D295A-1 (run 1), β-arrestin1 recruitment
[2] = D295A-2 (run 2), β-arrestin1 recruitment
[3] = D295A-3 (run 3), β-arrestin1 recruitment
[4] = L290A-1 (run 1), β-arrestin1 recruitment
[5] = L290A-2 (run 2), β-arrestin1 recruitment
[6] = L290A-3 (run 3), β-arrestin1 recruitment
[7] = S279A-1 (run 1), β-arrestin1 recruitment
[8] = S279A-2 (run 2), β-arrestin1 recruitment
[9] = S279A-3 (run 3), β-arrestin1 recruitment
[10] = Y302A-1 (run 1), β-arrestin1 recruitment
[11] = Y302A-2 (run 2), β-arrestin1 recruitment
[12] = Y302A-3 (run 3), β-arrestin1 recruitment
[13] = best-fit value, I195A-1 (run 1)
[14] = best-fit value, I195A-2 (run 2)
[15] = best-fit value, I195A-3 (run 3)

## C[C@@H](O)[C@@H]1NC(=O)[C@H](CCCCN)NC(=O)[C@@H](Cc2c[nH]c3ccccc23)NC(=O)[C@H](Cc2ccccc2)NC(=O)[C@@H](NC(=O)[C@H](N)Cc2ccccc2)CSSC[C@@H](C(=O)N[C@H](CO)[C@@H](C)O)NC1=O [octreotide]
[1]
  Bottom (best-fit value): 0.2059
  LogEC50 (best-fit value): -6.975
  Span (best-fit value): 90.14
  Top (best-fit value): 90.34
D295A-1 (run 1), β-arrestin1 recruitment, read-out: EC50 (best-fit value)
  EC50: 106 nM
[2]
  Bottom (best-fit value): -0.553
  LogEC50 (best-fit value): -6.954
  Span (best-fit value): 94.35
  Top (best-fit value): 93.8
D295A-2 (run 2), β-arrestin1 recruitment, read-out: EC50 (best-fit value)
  EC50: 111 nM
[3]
  Bottom (best-fit value): -6.587
  LogEC50 (best-fit value): -6.025
  Span (best-fit value): 251.8
  Top (best-fit value): 245.2
D295A-3 (run 3), β-arrestin1 recruitment, read-out: EC50 (best-fit value)
  EC50: 944 nM
F127A-1
  Bottom (best-fit): -1.151
  LogEC50 (best-fit): -8.337
  Span (best-fit): 58.78
  Top (best-fit): 57.63
F127A-1, read-out: EC50 (best-fit)
  EC50: 4.6 nM
F127A-2
  Bottom (best-fit): -1.134
  LogEC50 (best-fit): -8.363
  Span (best-fit): 52.24
  Top (best-fit): 51.1
F127A-2, read-out: EC50 (best-fit)
  EC50: 4.33 nM
F127A-3
  Bottom (best-fit): -1.083
  LogEC50 (best-fit): -8.391
  Span (best-fit): 50.21
  Top (best-fit): 49.13
F127A-3, read-out: EC50 (best-fit)
  EC50: 4.07 nM
F208A-1
  Bottom (best-fit): -1.787
  LogEC50 (best-fit): -6.773
  Span (best-fit): 82.48
  Top (best-fit): 80.69
F208A-1, read-out: EC50 (best-fit)
  EC50: 169 nM
F208A-2
  Bottom (best-fit): -1.774
  LogEC50 (best-fit): -6.823
  Span (best-fit): 91.81
  Top (best-fit): 90.03
F208A-2, read-out: EC50 (best-fit)
  EC50: 150 nM
F208A-3
  Bottom (best-fit): -1.249
  LogEC50 (best-fit): -6.77
  Span (best-fit): 80.71
  Top (best-fit): 79.46
F208A-3, read-out: EC50 (best-fit)
  EC50: 170 nM
F294(7.35)A
  β-arrestin recruitment of mutant: nearly impaired the octreotide-induced β-arrestin recruitment
I284ECL3A and K291(7.32)A
  β-arrestin signal of mutants: reduced potency and efficacy of octreotide induced β-arrestin signal
[4]
  Bottom (best-fit value): 5.848
  LogEC50 (best-fit value): -8.723
  Span (best-fit value): 78.77
  Top (best-fit value): 84.62
L290A-1 (run 1), β-arrestin1 recruitment, read-out: EC50 (best-fit value)
  EC50: 1.89 nM
[5]
  Bottom (best-fit value): 5.656
  LogEC50 (best-fit value): -8.77
  Span (best-fit value): 81.03
  Top (best-fit value): 86.69
L290A-2 (run 2), β-arrestin1 recruitment, read-out: EC50 (best-fit value)
  EC50: 1.7 nM
[6]
  Bottom (best-fit value): -1.116
  LogEC50 (best-fit value): -8.203
  Span (best-fit value): 76.53
  Top (best-fit value): 75.41
L290A-3 (run 3), β-arrestin1 recruitment, read-out: EC50 (best-fit value)
  EC50: 6.27 nM
N276(6.55)A
  β-arrestin recruitment of mutant: nearly abolished the recruitment of β-arrestin
P220A-1
  Best-fit values Bottom: 0.1149
  Best-fit values LogEC50: -6.553
  Best-fit values Span: 34.49
  Best-fit values Top: 34.6
P220A-1, read-out: Best-fit values EC50
  EC50: 280 nM
P220A-2
  Best-fit values Bottom: -0.6221
  Best-fit values LogEC50: -7.989
  Best-fit values Span: 58.87
  Best-fit values Top: 58.25
P220A-2, read-out: Best-fit values EC50
  EC50: 10.3 nM
P220A-3
  Best-fit values Bottom: -0.6988
  Best-fit values LogEC50: -8.034
  Best-fit values Span: 50.86
  Best-fit values Top: 50.16
P220A-3, read-out: Best-fit values EC50
  EC50: 9.24 nM
[7]
  Bottom (best-fit value): -1.308
  LogEC50 (best-fit value): -8.149
  Span (best-fit value): 94.92
  Top (best-fit value): 93.61
S279A-1 (run 1), β-arrestin1 recruitment, read-out: EC50 (best-fit value)
  EC50: 7.09 nM
[8]
  Bottom (best-fit value): -2.227
  Span (best-fit value): 74.73
  Top (best-fit value): 72.5
S279A-2 (run 2), β-arrestin1 recruitment, read-out: EC50 (best-fit value)
  EC50: 21.4 nM
[9]
  Bottom (best-fit value): 0.9887
  LogEC50 (best-fit value): -6.436
  Span (best-fit value): 131.8
  Top (best-fit value): 132.8
S279A-3 (run 3), β-arrestin1 recruitment, read-out: EC50 (best-fit value)
  EC50: 366 nM
W269A-1
  Best-fit values Bottom: 0.3902
  Best-fit values LogEC50: -7.096
  Best-fit values Span: 27.42
  Best-fit values Top: 27.81
W269A-1, read-out: Best-fit values EC50
  EC50: 80.1 nM
W269A-2
  Best-fit values LogEC50: -7.281
  Best-fit values Span: 32.61
  Best-fit values Top: 36.93
W269A-2, read-out: Best-fit values EC50
  EC50: 52.3 nM
W269A-3
  Best-fit values Bottom: 3.687
  Best-fit values LogEC50: -7.475
  Best-fit values Span: 31.64
  Best-fit values Top: 35.33
W269A-3, read-out: Best-fit values EC50
  EC50: 33.5 nM
Y205A-1
  Bottom (best-fit): -3.221
  LogEC50 (best-fit): -7.699
  Span (best-fit): 139.2
  Top (best-fit): 135.9
Y205A-1, read-out: EC50 (best-fit)
  EC50: 20 nM
Y205A-2
  Bottom (best-fit): -1.321
  LogEC50 (best-fit): -8.57
  Span (best-fit): 93.02
  Top (best-fit): 91.7
Y205A-2, read-out: EC50 (best-fit)
  EC50: 2.69 nM
Y205A-3
  Bottom (best-fit): 0.3514
  LogEC50 (best-fit): -7.837
  Span (best-fit): 328.7
  Top (best-fit): 329.1
Y205A-3, read-out: EC50 (best-fit)
  EC50: 14.5 nM
Y302(7.43)A
  β-arrestin recruitment of mutant: slightly impaired
[10]
  Bottom (best-fit value): -0.3068
  LogEC50 (best-fit value): -8.733
  Span (best-fit value): 87.43
  Top (best-fit value): 87.12
Y302A-1 (run 1), β-arrestin1 recruitment, read-out: EC50 (best-fit value)
  EC50: 1.85 nM
[11]
  Bottom (best-fit value): 0.826
  LogEC50 (best-fit value): -8.763
  Span (best-fit value): 86.05
  Top (best-fit value): 86.87
Y302A-2 (run 2), β-arrestin1 recruitment, read-out: EC50 (best-fit value)
  EC50: 1.72 nM
[12]
  Bottom (best-fit value): 1.139
  LogEC50 (best-fit value): -8.739
  Span (best-fit value): 85.71
  Top (best-fit value): 86.85
Y302A-3 (run 3), β-arrestin1 recruitment, read-out: EC50 (best-fit value)
  EC50: 1.82 nM
[13]
  Bottom: -0.3262
  LogEC50: -7.224
  Span: 58.86
  Top: 58.54
best-fit value, I195A-1 (run 1), read-out: EC50
  EC50: 59.8 nM
[14]
  Bottom: -0.9813
  LogEC50: -7.334
  Span: 61.03
  Top: 60.04
best-fit value, I195A-2 (run 2), read-out: EC50
  EC50: 46.3 nM
[15]
  Bottom: -0.6923
  LogEC50: -7.245
  Span: 59.4
  Top: 58.71
best-fit value, I195A-3 (run 3), read-out: EC50
  EC50: 56.9 nM
best-fit value, L99A-1 (run 1)
  Bottom: 17.86
  LogEC50: -6.902
  Span: 95.94
  Top: 113.8
best-fit value, L99A-2 (run 2)
  Bottom: -2.171
  LogEC50: -7.606
  Span: 48.46
  Top: 46.29
best-fit value, L99A-2 (run 2), read-out: EC50
  EC50: 24.8 nM
best-fit value, L99A-3 (run 3)
  Bottom: -2.89
